Patent US10155802B2, “Locally-active anticoagulants and anti-inflammatory agents” (priority 2011, dated 2018)
pEC50, pIC50: −log10 of the molar value. No end group written: not given here.

Experiments:
[1] = biological target: T1, rat-tail collagen type I (Rattus norvegicus, UniProt P02454+P02466); assay: Peptide-collagen binding by reduction of collagen fibril alignment (deuterium coupling constant); conditions: collagen gelation under magnetic field in presence of peptide
T1 construct: purchased BD Bioscience; host or cells: rat tail (tissue-derived)
Excerpt: High-resolution proton NMR spectroscopy is used to illustrate the behavior of the linker peptides […] (SEQ ID NO: 2 or gb1), […] (SEQ ID NO: 3 or trpzip6), […] (SEQ ID NO: 4 or trpzip5) and […] (SEQ ID NO: 5 or trpzip4) in aqueous solutions. The peptides were synthesized using standard Fmoc chemistry and purified by reverse-phase HPLC. Their identity was confirmed by mass-spectroscopy and NMR spectroscopy. For NMR studies, a volume of (400-X) μL of a peptide dissolved in pure water was mixed with 50 μL of a 10×PBS (phosphate-buffered saline) supplemented by sodium phosphate to a final concentration of 50 mM and with 50 μL of deuterated water (D2O) to form the reference sample (where X=0) and with a certain volume (X μL) of rat-tail collagen type I (at 3.6 to 4 mg/ml in 0.02 N acetic acid from BD Bioscience), (where X is adjusted to achieve the desired final concentration of collagen), with 50 μL of the 10× modified PBS and with 50 μL of deuterated water (D2O) to form the peptide-collagen complex. The pH value of the reference peptide samples was adjusted to match the pH of the final peptide-collagen complex in order to facilitate NMR spectral comparison.
The peptide-collagen solutions were subjected to gelation under magnetic field guidance (see Example 7) followed by the measurement of fibril alignment (Ma 2008) as a semi-quantitative indication of peptide-collagen binding. […]

[2] = test system: FeCl3-induced arterial thrombosis (carotid artery); assay: FeCl3-induced arterial model of thrombosis in rats (time to occlusion); type: in vivo; conditions: rat, single-bolus injection
Experimental: Male Sprague-Dawley rats (250-310 g; Charles River Laboratories, St-Constant, QC, Canada) were acclimated for at least 3 days prior to the start of the study. Animals were housed in microisolator cages and were kept on a 12-hr light/dark cycle with constant temperature and humidity. Food and water were provided ad libitum. Various anti-thrombotic agents and peptides of this invention were dissolved in saline (0.9% sodium chloride) prior to use.
The FeCl3-induced arterial model of thrombosis in rats was also generated as described by Wang and Xu (Wang 2005) with some modifications (Couture 2011). Briefly, rats were anesthetized with a 2.5% isoflurane/oxygen mixture and placed on a heat source (35-37° C.). An incision was made over the right carotid artery, and a segment of the artery was exposed via blunt dissection. A Doppler flow probe (Model MA1PRB, Transonic System Inc., Ithaca, N.Y., USA) connected to a perivascular flow module (TS420, Transonic System Inc., Ithaca, N.Y., USA) was then attached to the carotid artery to monitor blood flow. Data were collected and analyzed using the MP100 Biopac™ Systems (Biopac Systems, Santa Barbara, Calif., USA), and the AcgKnowledge™ software (Biopac Systems, Santa Barbara, Calif., USA), respectively. Baseline blood flow was recorded for a minimum of 15 minutes until readings stabilized. Aquasonic 100 gel (Parker Laboratories, Inc., Fairfield, N.J., USA) was added to help conductivity and any fluid accumulating at the site of surgery was removed during data sampling without touching the probe. […] One minute after drug administration, a piece of filter paper (Gel Blot Paper, GB003, Whatman, Piscataway, N.J., USA; 7 mm diameter) saturated with 20% FeCl3 (EMD Chemicals Inc., Gibbstown, N.J., USA) was placed on the exposed surface of the carotid artery and incubated for 3.5 minutes. During the application of FeCl3, the neck region was covered with aluminum foil. At the end of the incubation period, the filter paper was removed and the exposed carotid was covered with a saline-soaked gauze. Time to occlusion was defined as the time from the application of FeCl3 until blood flow decreased to zero. […] Preparing and processing each animal took approximately 1 hr and 7 animals were treated each day. Control animals were always included when the other treatments were being administered. For this reason, the number of animals in the control group is higher than that of the treated-groups.
Statistical analysis was conducted using GraphPad™ Prism (GraphPad Software Inc., San Diego Calif., USA). Data were analyzed using one-way ANOVA with post-hoc Bonferroni correction for multiple comparisons. The relationship between thrombus weight and thrombus volume was determined by linear regression. […]

[3] = test system: pooled human plasma; assay: Prothrombin time (PT, thromboplastin) clotting assay; type: biochemical; conditions: for pIC50: 37° C., concentration that prolongs clotting time by 50%
Experimental: (§1) Prothrombin (clotting) time (PT) or activated partial thromboplastin (clotting) time (APTT) assays were carried out at certain concentrations of the thrombin inhibitors of the present invention using pooled human plasma with addition of thromboplastin or activated partial thromboplastin to initiate clotting. The assays employed kits from Biopool International (Ventura, Calif., USA) or from Pacific Haemostasis (Middletown, Va., USA) using the procedures supplied by the manufacturer. Briefly, the stock solution of an inhibitor (with the concentration determined using UV-based OD determination, see Gill 1989) is diluted in a buffer of 20 mM HEPES and 150 mM NaCl at pH 7.4 (HBS) to a final volume of 50 μL, to which is added the reconstituted normal plasma (Product #CMS-176172 from Fisher Scientific) in an equal volume. This solution mixture is equilibrated at 37° C. for 2 minutes before 50 μL of the APTT-10XL solution (CMS-022927) is introduced forcibly to ensure proper mixing. This new mixture was incubated at 37° C. for another 5 minutes, which is followed by the addition of 50 μL of 0.02 M […] (Fisher Scientific CMS-022925) pre-warmed at 37° C. For the prothrombin time (PT) assay, an inhibitor is diluted in HBS to a final volume of 25 μL, to which is added the reconstituted control plasma (Fisher Scientific CMS-176172) in an equal volume. This solution mixture is equilibrated at 37° C. for 5 minutes before addition of 100 μL of the thromboplastin solution (CMS-176099) pre-warmed at 37° C. For APTT assays, inhibitory activities of the peptides are expressed as concentrations needed to achieve 50% of the maximum delay in clotting time (MCT50) as compared to the absence of thrombin inhibitors (Maraganore 1989). For PT assays, inhibitory activities are measured as the concentrations of the peptides that prolong the clotting time by 50% (IC50) of that of the normal control plasma (Maraganore 1990). PT and APTT assays were also carried out using slightly modified experimental procedures. Thus, 50 μL of a control plasma (Pacific Hemostasis) solution was added to 100 μL HBS (20 mM HEPES and 150 mM NaCl at pH 7.4) containing varied concentrations of the peptides of this invention. After incubation at 37° C. for 5 min, the mixture was added to 50 μL of the thromboplastin or activated partial thromboplastin reagent. Clotting of the plasma was monitored by change in absorbance at 420 nm using a SpectraMax™ plate reader.

[4] = test system: human coagulation proteome; assay: Synthetic coagulation proteome assay (thrombin generation); type: biochemical; conditions: 37° C.
Experimental: This assay is carried out using an established protocol as described previously (Brummel-Ziedens 2008). Briefly, a pro-cofactor solution containing re-lipidated tissue factor (10 pM; molar ratio PCPS:TF=5000) was incubated with 4 μM PCPS in HBS (20 mM HEPES and 150 mM NaCl at pH 7.4) and 2 mM CaCl2 for 8 min at 37° C. Factor V (40 nM) and Factor VIII (1.4 nM) were then added to the mixture prior to initiation of the reaction to activate the protease zymogens in the blood coagulation cascade. The activation reaction was initiated by addition of the pro-cofactor solution to a zymogen solution containing prothrombin (2.8 μM), Factor VII (20 nM), Factor Vila (0.2 nM), FX (340 nM), Factor IX (180 nM), Factor XI (60 nM), TFPI (5 nM), antithrombin III (6.8 μM) […]
At selected time points after initiation of the reaction, 10 μL aliquots were withdrawn from the reaction mixture and quenched in 20 mM EDTA in HBS (pH 7.4) containing 0.2 mM Spectrozyme™ TH and assayed immediately for the proteolytic activity of thrombin. The hydrolysis of Spectrozyme™ TH was monitored by the change in absorbance at 405 nm using a SpectraMax™ plate reader (Molecular Devices Corp., Menlo Park, Calif., USA). Concentration of thrombin generated by the reaction was calculated from a standard curve prepared by serial dilutions of known concentrations of α-thrombin using the fibrinogen clotting assay (DiMaio 1990). Fibrinogen solution was freshly prepared by dissolving about 0.5% (w/v) fibrinogen in 50 mM Tris-HCl, 100 mM NaCl, 0.1% PEG-8000, pH 7.6 and filtering the resulting solution through a hydrophilic membrane of 0.45 μm polyvinylidene fluoride (PVDF) with low protein binding. The concentration of fibrinogen after filtration was determined by using the extinction coefficient of 15.0 for 1% fibrinogen at 280 nm. […] Thrombin-induced clotting of fibrinogen was followed at 25° C. by measuring the optical absorbance at 420 nm. The clotting time was obtained from extrapolation of the slope at the point of inflection to the zero absorbance baseline. […]

[5] = test system: pooled human plasma; assay: Activated partial thromboplastin time (APTT) clotting assay; type: biochemical; conditions: 37° C.; concentration for 50% of maximum delay in clotting time; read-out: MTC50 (APTT)
Experimental: as §1

T1 sequence (P02454 152-1207): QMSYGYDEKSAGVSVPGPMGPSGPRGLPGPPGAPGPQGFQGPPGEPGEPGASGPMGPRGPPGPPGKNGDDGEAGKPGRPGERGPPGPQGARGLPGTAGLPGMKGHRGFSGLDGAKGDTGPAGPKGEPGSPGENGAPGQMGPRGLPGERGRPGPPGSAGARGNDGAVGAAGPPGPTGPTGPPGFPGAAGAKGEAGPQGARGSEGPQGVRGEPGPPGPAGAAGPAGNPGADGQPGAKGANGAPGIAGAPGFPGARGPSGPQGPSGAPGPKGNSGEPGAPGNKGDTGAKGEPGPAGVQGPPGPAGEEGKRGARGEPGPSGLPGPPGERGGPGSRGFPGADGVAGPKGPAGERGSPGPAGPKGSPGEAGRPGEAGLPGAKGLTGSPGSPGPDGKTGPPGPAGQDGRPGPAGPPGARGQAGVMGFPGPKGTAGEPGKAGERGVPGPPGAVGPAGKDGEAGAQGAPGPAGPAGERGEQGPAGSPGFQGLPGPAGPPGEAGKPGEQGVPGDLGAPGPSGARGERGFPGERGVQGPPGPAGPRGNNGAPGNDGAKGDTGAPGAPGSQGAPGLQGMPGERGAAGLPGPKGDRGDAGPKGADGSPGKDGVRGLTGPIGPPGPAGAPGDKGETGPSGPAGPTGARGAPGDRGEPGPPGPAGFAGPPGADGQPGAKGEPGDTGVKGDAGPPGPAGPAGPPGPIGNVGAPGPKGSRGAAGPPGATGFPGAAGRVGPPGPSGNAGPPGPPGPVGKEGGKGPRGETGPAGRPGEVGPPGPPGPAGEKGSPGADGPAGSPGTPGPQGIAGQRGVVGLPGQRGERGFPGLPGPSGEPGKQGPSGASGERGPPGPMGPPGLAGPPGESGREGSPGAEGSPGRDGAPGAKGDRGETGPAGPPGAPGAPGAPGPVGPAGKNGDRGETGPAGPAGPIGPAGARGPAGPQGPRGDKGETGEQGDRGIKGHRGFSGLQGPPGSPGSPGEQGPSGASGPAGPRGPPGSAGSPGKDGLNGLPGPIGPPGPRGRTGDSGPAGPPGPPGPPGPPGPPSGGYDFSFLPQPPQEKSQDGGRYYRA
T1 sequence (P02466 86-1125): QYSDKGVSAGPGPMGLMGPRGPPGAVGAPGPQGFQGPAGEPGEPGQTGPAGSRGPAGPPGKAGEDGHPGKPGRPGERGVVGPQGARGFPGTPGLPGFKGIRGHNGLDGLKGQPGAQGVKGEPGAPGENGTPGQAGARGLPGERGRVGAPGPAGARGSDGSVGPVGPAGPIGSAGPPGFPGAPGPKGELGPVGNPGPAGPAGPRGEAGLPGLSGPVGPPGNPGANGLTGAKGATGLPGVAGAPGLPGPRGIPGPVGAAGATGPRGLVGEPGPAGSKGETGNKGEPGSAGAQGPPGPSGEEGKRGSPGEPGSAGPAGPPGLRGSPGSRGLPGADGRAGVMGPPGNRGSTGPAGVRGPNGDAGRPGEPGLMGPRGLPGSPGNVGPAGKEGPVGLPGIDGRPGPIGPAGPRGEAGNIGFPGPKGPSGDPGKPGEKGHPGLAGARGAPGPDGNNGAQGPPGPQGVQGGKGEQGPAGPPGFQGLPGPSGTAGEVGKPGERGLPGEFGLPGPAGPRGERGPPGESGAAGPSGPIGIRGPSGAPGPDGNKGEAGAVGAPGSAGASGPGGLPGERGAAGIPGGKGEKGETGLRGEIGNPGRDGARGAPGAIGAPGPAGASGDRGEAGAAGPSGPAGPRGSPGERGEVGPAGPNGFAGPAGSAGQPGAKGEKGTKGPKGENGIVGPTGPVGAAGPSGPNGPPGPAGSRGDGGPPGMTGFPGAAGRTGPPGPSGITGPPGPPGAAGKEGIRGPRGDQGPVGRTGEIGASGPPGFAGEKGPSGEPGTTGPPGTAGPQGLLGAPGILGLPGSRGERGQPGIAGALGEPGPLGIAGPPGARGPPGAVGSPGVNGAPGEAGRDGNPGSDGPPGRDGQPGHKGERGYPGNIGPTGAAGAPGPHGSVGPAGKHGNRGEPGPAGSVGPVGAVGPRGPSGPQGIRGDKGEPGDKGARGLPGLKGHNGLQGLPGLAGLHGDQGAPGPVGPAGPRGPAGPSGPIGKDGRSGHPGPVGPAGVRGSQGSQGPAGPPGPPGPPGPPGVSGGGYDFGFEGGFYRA

GEWTWDDATKTWTWTE (not fully specified (C-terminus)) [trpzip4]
reduction of deuterium coupling constant (degree of collagen fibril alignment) [1]: more than 1.0 Hz

Bivalirudin [reference compound]
reduction of arterial occlusion [2]: consistently better efficacy | pIC50 [3]: 7.03

CC1CNc2c(cccc2S(=O)(=O)N[C@@H](CCCNC(=N)N)C(=O)N2CC[C@@H](C)C[C@@H]2C(=O)O)C1 (some centres unmarked) [Argatroban, reference compound]
reduction of arterial occlusion [2]: consistently better efficacy

CC[C@H](C)[C@H](N)C(=O)N[C@@H](CCCNC(=N)N)C(=O)N[C@@H](Cc1ccccc1)C(=O)N[C@H](C(=O)N[C@@H](CC(=O)O)C(=O)NCC(=O)N[C@@H](CCC(=O)O)C(=O)NCC(=O)N[C@H](C(=O)NCC(=O)N[C@@H](CO)C(=O)NCC(=O)N[C@@H](CO)C(=O)NCC(=O)N[C@@H](CO)C(=O)NCC(=O)N[C@@H](CO)C(=O)NCC(=O)N[C@@H](CC(=O)O)C(=O)N[C@@H](Cc1ccccc1)C(=O)N[C@@H](CCC(=O)O)C(=O)N[C@@H](CCC(=O)O)C(=O)N[C@H](C(=O)N1CCC[C@H]1C(=O)N[C@@H](CCC(=O)O)C(=O)N[C@@H](CCC(=O)O)C(=O)N[C@@H](Cc1ccc(O)cc1)C(=O)N[C@@H](CC(C)C)C(=O)N[C@@H](CCC(N)=O)C(=O)O)[C@@H](C)CC)[C@@H](C)O)[C@@H](C)O [MH2-GS]
delay of thrombin burst / onset of thrombin generation [4]: clear dose-dependency for the delay of thrombin burst | pEC50 [5]: 6.05 | pIC50 [3]: 6.70 | anticoagulant effect in PT versus APTT assays ([3]; in words): more potent effect in delaying the prothrombin time as compared to APTT
